Assay results published in PubChem BioAssay AID2252 (Southern Research Specialized Biocontainment Screening …, 2010).

What follows are compounds tested on THP-1 viability, CellTiter-Glo luminescence, 72 h (assay: PubChem AID 2252).

| Structure (SMILES) | EC50 [µM] |
| --- | --- |
| Cc1ccc(C(C[N+](=O)[O-])Sc2ccc(N)cc2)cc1 (stereo not drawn) | 21.8 |
| COC(=O)C1=C(C)N(Cc2ccccc2)C(=NCc2cccc(C(F)(F)F)c2)N[C@H]1c1cccc(F)c1 | 5.3 |
| Cc1nc2c(=O)n(C)c(=O)nc-2n(C)n1 | 2.17 |
| CN(C)CCCNc1cc(C(C)(C)C)nc2c(-c3ccccc3)cnn12 | 6.48 |
| C#CCOCCOCCOCCNc1nc(N2CCN(C(=O)CCCCCCCCCCNC(=O)Cn3cc(CCCCCN)nn3)CC2)nc(N2CCN(C(=O)CCCCCCCCCCNC(=O)[C@@H]([C@H](C)O)n3cc(C)nn3)CC2)n1 | < 0.1 |
| COc1ccc(Nc2nc(NCC3CCCO3)c3ccccc3n2)c(OC)c1 (stereo not drawn) | 9.34 |
| Fc1ccc(Nc2nnc(C(F)(F)F)s2)cc1Cl | 18.5 |
| O=[N+]([O-])c1cc(O)c2ncccc2c1 | 5.78 |
| CN1CCc2c(sc(NC(=O)c3ccc([N+](=O)[O-])o3)c2C(N)=O)C1 | 0.7 |
| COc1ccc(Nc2cc(C)c3c(O)cccc3n2)cc1 | 8.86 |
| CN1CCC(=C2c3ccccc3C=Cc3ccccc32)CC1 | 41.3 |
| Cc1ccc(Nc2nc(NCCO)c3ccccc3n2)cc1C | 3.06 |
| O=C(CCN1CCN(c2ccccc2F)CC1)c1ccc(Br)cc1 | 17 |
| COc1ccccc1Nc1c2ccccc2nc2ccccc12 | 8.38 |
| OCCNc1nc(Nc2ccccc2)nc2ccccc12 | 3.06 |
| S=C(Nc1cc(Cl)cc(Cl)c1)NC1CCN(Cc2ccccc2)CC1 | 14.6 |
| CC1(C)Oc2ccc3ccc(=O)oc3c2/C(=C/NCCN/C=C2\C(=O)C(C)(C)Oc3ccc4ccc(=O)oc4c32)C1=O | < 0.1 |
| Oc1c(CN2CCN(c3ccccn3)CC2)cc(Cl)c2cccnc12 | 1.64 |
| CCOC(=O)Cn1c(=N)n(CCOc2ccc3ccccc3c2)c2ccccc21 | 17.7 |
| CC(C)(C)c1ccc(NC(=O)NCc2ccco2)cc1 | 13.3 |
| CCN1CCN(CCNC(=O)c2ccc(/C=C3/Sc4ccccc4N(Cc4cccc(C)c4)C3=O)cc2)CC1 | 8.21 |

| Structure (SMILES) | EC50 [µM] |
| --- | --- |
| CNC[C@H](CC1CCCCC1)NC[C@H](Cc1ccccc1)NCCC12CC3CC(CC(C3)C1)C2 | 3.49 |
| O=CN/N=C/c1c(O)ccc2ccccc12 | 5.1 |
| CCOc1ccc(-c2cc(C)[n+](CCN(CC)CC)c(-c3ccc(OCC)cc3)c2)cc1 | 4.37 |
| COc1ccc(/C=N/NC(=O)c2cc3c(OC)ccc(OC)c3[nH]2)cc1O | 2.53 |
| CCCCCCCCCCCCCCCC[N+](C)(C)CC | 0.48 |
| O=C(Cc1ccccc1)N/N=C/c1cc(Br)cc(Cl)c1O | 3.7 |
| O=c1[nH]cc(F)c(=O)[nH]1 | 6.24 |
| Fc1ccc([C@@H]2CCNC[C@H]2COc2ccc3c(c2)OCO3)cc1 | 7.59 |
| Brc1ccc2c(c1)CN1CCCC1=N2 | 28.6 |
| O=C(Cn1cc[n+](CC(=O)c2ccc(Cl)cc2Cl)c1)c1ccc(Cl)cc1Cl | 16.1 |
| Cc1c(CCN)ccc2c1[nH]c1ccccc12 | 22.3 |
| CC(C)[C@H](NC(=O)c1ccccc1Cl)C(=O)Nc1nc(-c2ccccn2)cs1 | 6.18 |
| Cc1ccc(-n2[nH]c(C)c(C=NCc3ccncc3)c2=O)cc1 | 31.6 |
| O=C(NC(=S)NNC(=O)c1cnccn1)c1ccc(F)cc1 | 5.51 |
| O=C(/C=C/c1cccs1)NC(=S)NNC(=O)c1ccccc1O | 2.79 |
| CCN1c2ccccc2NC2N=C(OC)C(c3ccccc3)C21 (stereo not drawn) | 16.1 |
| O=C(c1cccs1)c1no[n+]([O-])c1C(=O)c1cccs1 | 1.89 |
| C/C(=N\NC(=O)c1ccc(Cl)cc1)c1ccccn1 | 0.97 |
| CCCCCCCCNC(C)C(O)c1ccc(SC(C)C)cc1 (stereo not drawn) | 3.57 |
| Cc1ccc(-c2csc(NC(=O)C[n+]3cc(-c4ccccc4)n4c3CCC4)n2)cc1 | 8.47 |
| O=C(/C=C/c1ccccc1)NC(=S)NNC(=O)c1cnccn1 | 4.6 |

| Structure (SMILES) | EC50 [µM] |
| --- | --- |
| CN1CCN(C(c2ccc(Br)cc2)c2cc(Cl)c3cccnc3c2O)CC1 (stereo not drawn) | 2 |
| CCN(CC)CCCCCCCCOC(=O)c1cc(OC)c(OC)c(OC)c1 | 47.9 |
| Oc1ccc(Cl)cc1Cc1cc(Cl)ccc1O | 19.5 |
| NC1=NC[C@@H](Cc2ccc(O)cc2)N1CCc1cc(C(F)(F)F)cc(C(F)(F)F)c1 | 32.3 |
| CC(C)NC(=O)CN1CCN(Cc2nc(C(c3ccccc3)c3ccccc3)no2)CC1 | < 0.1 |
| O=C(N/N=C/c1cc(Br)cc(Br)c1O)c1ccncc1 | 4.01 |
| COc1ccc(NS(=O)(=O)c2cc(NC(=O)c3ccc(C)s3)ccc2N2CCOCC2)cc1 | 21.6 |
| COc1cc(CNCCc2ccccc2)cc(Cl)c1OCc1ccccc1 | 16.6 |
| C[C@@H](NC(=O)/C(C#N)=C/c1ccc(O)c(O)c1)c1ccccc1 | 15.2 |
| O=C(N/N=C/c1cccc(OCc2ccccc2)c1)c1cccs1 | 40.4 |
| Cc1ccc(Cn2c(=N)c(C(=O)NCc3ccco3)cc3c(=O)n4ccccc4nc32)cc1 | 42.6 |
| CCOc1cccc(CNCCc2c(C)[nH]c3ccc(OC(F)(F)F)cc23)c1O | 3.51 |
| O=C(CCN1CCC(c2ccccc2)C1)c1ccc2c(c1)OCCO2 (stereo not drawn) | 21.6 |
| Cc1ccc(-c2ccccc2NC(=O)CS(=O)CC(=O)Nc2ccc(C)c(Cl)c2)o1 (stereo not drawn) | 32.2 |
| O=C(CCN1Cc2ccccc2C1)c1ccc2c(c1)OCCO2 | 19 |
| Cc1ccc(Cn2c(=N)n(CC(O)COc3ccccc3)c3ccccc32)cc1 (stereo not drawn) | 6.08 |
| CCN(CC)CCn1c(=N)n(CC(O)COc2cccc(C)c2)c2ccccc21 (stereo not drawn) | 16.2 |
| Cn1c(N/N=C/c2c[nH]c3ccccc23)nc2ccccc21 | 8.11 |
| O=C(Oc1c(Cl)cc(Cl)c2cccnc12)c1ccco1 | 11.6 |
| CC(=O)NC(=S)NNC(=O)c1ccc(Br)cc1 | 27.6 |
| COC(=O)C1=C(C(=O)OC)SC(=C2C(=S)C(C)(C)N(C(=O)C3CC3)c3ccccc32)S1 | 30.9 |

| Structure (SMILES) | EC50 [µM] |
| --- | --- |
| CC(C(=O)c1ccc(-c2ccccc2)cc1)[n+]1cccc(NC(=O)c2ccccc2)c1 (stereo not drawn) | 17.7 |
| Cc1ccc(NC(=O)COc2ccccc2CNC(C)(C)CC(C)(C)C)cc1 | 9.23 |
| COc1cc(CNC2CCCC2)cc(Cl)c1OCc1ccccc1Cl | 14.4 |
| CCN1/C(=C/C=C/C=C/c2sc3ccccc3[n+]2CC)Sc2ccccc21 | 7.7 |
| Cc1ccc(C(=O)N/C(=C\c2ccc(-c3ccc(Cl)cc3)o2)C(=O)NCCCN(C)C)cc1 | 5.31 |
| CCOc1ccc(-c2nc(N)ncc2-c2ccccc2)c(O)c1 | 46.8 |
| CCc1nnc(NS(=O)(=O)c2ccc(N=Cc3c(C)[nH]n(-c4ccc(C)cc4)c3=O)cc2)s1 | 29.3 |
| CCOC(=O)N/N=C(/C)c1ccc([N+](=O)[O-])o1 | 34.2 |
| O=Nc1c(O)c2ccccc2c2ccccc12 | 3.08 |
| O=C(NCc1cccnc1)c1ccc(COc2ccc(Cl)cc2)cc1 | 43.8 |
| CCCCOc1ccc(NC2=NC3(CCCCC3)N=C(N)N2)cc1 | 7.18 |
| OCCNCc1cc(Br)ccc1OCc1ccc(Cl)cc1 | 15.9 |
| OC1(c2ccc(Cl)cc2)CCN(Cc2c[nH]c3ccccc23)CC1 | 9.75 |
| N/C(=N\OC(=O)N1CCOCC1)c1ccccc1 | 15.5 |
| Cc1ccc(C(C)C)c(OCCNC(=O)c2ccccc2O)c1 | 32.5 |
| CC1(C)N=C(N)NC(Nc2ccc(Br)cc2)=N1 | 7.06 |
| CC1CCCC(NC(=O)COC(=O)CCSc2ccccc2)C1C (stereo not drawn) | < 0.1 |
| CCCCn1c(NCc2ccccc2NS(=O)(=O)c2ccc(C)cc2)nc2ccccc21 | 24.3 |
| O=C(CCc1ccccc1)NNC(=O)c1ccccn1 | 18.2 |
| Nc1nonc1-n1nnc(C(=O)N/N=C/c2ccccc2O)c1CN1CCCC1 | 8.87 |
